Source: ChEMBL document CHEMBL3621077, “Synthesis of hybrid anticancer agents based on kinase and histone deacetylase inhibitors” (Medchemcomm, 2014)
The source made the active and inactive calls. No cut-off for these calls is given here.

Columns and labels:
[1] = target: Mast/stem cell growth factor receptor Kit (Homo sapiens) (UniProt P10721); experiment: Inhibition of c-kit (unknown origin) at 10 uM
[2] = target: Platelet-derived growth factor receptor alpha (Homo sapiens, UniProt P16234); experiment: Inhibition of PDGFRa (unknown origin); conditions: read-out: IC50
Platelet-derived growth factor receptor alpha, sequence (P16234 whole entry): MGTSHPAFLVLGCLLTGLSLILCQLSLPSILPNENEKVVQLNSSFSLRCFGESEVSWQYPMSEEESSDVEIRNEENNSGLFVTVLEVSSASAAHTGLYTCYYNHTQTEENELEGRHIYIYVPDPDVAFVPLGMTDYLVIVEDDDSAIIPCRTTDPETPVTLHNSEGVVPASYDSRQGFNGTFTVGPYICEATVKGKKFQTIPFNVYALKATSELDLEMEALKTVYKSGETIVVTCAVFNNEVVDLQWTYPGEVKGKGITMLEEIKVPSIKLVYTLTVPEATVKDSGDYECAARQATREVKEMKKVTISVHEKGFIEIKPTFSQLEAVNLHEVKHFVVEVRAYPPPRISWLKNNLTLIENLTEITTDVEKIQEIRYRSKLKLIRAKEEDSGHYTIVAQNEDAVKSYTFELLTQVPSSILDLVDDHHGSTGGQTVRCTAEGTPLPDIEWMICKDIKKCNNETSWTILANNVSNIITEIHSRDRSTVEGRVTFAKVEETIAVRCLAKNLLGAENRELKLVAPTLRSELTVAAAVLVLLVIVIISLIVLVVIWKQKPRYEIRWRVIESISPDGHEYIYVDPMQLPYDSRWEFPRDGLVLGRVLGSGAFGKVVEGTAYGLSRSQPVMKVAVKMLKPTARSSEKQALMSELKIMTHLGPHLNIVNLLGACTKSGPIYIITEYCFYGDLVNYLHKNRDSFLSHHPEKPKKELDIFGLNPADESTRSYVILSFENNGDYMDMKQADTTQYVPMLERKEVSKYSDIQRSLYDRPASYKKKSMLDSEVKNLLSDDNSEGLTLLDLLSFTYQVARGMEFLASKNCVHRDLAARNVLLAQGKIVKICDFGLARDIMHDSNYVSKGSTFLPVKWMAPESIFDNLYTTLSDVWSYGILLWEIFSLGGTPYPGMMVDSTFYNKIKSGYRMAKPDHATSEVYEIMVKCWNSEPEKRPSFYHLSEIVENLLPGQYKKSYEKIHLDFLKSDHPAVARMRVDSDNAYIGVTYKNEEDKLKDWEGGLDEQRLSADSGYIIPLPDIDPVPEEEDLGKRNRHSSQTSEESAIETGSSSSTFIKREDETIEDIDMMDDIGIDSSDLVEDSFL

Histone deacetylase 2 = Histone deacetylase 2 (Homo sapiens, UniProt Q92769)
Histone deacetylase 2, sequence (Q92769 whole entry): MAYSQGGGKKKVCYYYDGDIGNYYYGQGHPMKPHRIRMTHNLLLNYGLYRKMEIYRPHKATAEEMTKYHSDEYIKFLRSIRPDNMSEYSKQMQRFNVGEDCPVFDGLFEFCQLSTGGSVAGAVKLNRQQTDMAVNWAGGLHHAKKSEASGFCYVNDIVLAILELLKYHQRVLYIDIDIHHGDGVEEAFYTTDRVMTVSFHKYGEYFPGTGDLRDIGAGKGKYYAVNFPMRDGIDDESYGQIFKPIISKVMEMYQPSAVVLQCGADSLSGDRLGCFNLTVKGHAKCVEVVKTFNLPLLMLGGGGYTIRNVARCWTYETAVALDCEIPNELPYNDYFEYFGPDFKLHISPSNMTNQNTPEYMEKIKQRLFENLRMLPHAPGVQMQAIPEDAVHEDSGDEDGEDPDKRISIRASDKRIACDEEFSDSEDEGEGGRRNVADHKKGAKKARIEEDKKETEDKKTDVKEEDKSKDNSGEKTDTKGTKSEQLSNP

Histone deacetylase 3 = Histone deacetylase 3 (Homo sapiens, UniProt O15379); experiment: Inhibition of HDAC3 (unknown origin)
Histone deacetylase 3, sequence (O15379 whole entry): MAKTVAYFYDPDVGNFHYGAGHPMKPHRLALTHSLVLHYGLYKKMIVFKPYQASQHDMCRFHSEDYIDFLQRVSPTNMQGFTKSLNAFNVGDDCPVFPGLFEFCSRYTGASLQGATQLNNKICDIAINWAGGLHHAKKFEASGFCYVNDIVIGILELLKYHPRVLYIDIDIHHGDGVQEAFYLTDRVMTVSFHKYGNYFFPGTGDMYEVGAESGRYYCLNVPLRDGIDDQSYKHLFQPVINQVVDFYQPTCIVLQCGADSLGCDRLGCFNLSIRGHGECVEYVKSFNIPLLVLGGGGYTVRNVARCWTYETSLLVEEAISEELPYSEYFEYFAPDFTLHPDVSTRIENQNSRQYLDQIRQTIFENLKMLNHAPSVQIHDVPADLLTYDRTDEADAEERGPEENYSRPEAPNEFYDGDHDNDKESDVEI

Histone deacetylase 4 = Histone deacetylase 4 (Homo sapiens, UniProt P56524); experiment: Inhibition of HDAC4 (unknown origin)
Histone deacetylase 5 = Histone deacetylase 5 (Homo sapiens, UniProt Q9UQL6); experiment: Inhibition of HDAC5 (unknown origin); conditions: read-out: IC50
Histone deacetylase 5, sequence (Q9UQL6 whole entry): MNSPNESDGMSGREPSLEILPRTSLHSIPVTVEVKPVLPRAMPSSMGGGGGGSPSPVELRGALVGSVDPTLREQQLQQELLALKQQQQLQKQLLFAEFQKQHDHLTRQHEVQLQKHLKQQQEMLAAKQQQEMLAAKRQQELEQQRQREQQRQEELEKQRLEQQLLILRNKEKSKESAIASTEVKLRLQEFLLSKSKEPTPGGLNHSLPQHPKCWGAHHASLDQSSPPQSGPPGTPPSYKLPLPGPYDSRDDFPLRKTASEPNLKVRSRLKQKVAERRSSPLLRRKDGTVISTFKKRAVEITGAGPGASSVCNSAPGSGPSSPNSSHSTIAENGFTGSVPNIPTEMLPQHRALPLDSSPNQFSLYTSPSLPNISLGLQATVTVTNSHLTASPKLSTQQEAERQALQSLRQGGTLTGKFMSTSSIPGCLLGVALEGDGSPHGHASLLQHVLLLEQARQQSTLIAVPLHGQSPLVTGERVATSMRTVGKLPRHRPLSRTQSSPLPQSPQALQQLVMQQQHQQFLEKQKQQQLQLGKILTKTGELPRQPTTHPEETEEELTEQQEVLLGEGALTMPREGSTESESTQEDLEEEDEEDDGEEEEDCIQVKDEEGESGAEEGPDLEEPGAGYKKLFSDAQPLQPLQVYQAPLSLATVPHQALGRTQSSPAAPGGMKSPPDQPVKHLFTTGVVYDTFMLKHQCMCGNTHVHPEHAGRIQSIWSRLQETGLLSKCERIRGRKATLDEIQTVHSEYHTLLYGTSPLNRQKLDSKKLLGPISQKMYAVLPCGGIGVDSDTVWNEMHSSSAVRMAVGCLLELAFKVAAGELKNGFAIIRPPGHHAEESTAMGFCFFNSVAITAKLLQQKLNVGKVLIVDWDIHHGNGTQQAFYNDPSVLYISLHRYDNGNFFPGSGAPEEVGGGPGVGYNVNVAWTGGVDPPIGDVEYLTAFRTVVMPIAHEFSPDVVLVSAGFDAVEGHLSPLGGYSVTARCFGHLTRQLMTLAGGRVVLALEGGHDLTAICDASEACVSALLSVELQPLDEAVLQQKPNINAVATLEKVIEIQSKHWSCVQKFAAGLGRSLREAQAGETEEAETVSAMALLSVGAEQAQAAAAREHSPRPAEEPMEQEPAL

[3] = target: T1, Protein deacetylase HDAC6 (Homo sapiens, UniProt Q9UBN7); experiment: Inhibition of HDAC6 (unknown origin); conditions: read-out: IC50
T1 sequence (Q9UBN7 whole entry): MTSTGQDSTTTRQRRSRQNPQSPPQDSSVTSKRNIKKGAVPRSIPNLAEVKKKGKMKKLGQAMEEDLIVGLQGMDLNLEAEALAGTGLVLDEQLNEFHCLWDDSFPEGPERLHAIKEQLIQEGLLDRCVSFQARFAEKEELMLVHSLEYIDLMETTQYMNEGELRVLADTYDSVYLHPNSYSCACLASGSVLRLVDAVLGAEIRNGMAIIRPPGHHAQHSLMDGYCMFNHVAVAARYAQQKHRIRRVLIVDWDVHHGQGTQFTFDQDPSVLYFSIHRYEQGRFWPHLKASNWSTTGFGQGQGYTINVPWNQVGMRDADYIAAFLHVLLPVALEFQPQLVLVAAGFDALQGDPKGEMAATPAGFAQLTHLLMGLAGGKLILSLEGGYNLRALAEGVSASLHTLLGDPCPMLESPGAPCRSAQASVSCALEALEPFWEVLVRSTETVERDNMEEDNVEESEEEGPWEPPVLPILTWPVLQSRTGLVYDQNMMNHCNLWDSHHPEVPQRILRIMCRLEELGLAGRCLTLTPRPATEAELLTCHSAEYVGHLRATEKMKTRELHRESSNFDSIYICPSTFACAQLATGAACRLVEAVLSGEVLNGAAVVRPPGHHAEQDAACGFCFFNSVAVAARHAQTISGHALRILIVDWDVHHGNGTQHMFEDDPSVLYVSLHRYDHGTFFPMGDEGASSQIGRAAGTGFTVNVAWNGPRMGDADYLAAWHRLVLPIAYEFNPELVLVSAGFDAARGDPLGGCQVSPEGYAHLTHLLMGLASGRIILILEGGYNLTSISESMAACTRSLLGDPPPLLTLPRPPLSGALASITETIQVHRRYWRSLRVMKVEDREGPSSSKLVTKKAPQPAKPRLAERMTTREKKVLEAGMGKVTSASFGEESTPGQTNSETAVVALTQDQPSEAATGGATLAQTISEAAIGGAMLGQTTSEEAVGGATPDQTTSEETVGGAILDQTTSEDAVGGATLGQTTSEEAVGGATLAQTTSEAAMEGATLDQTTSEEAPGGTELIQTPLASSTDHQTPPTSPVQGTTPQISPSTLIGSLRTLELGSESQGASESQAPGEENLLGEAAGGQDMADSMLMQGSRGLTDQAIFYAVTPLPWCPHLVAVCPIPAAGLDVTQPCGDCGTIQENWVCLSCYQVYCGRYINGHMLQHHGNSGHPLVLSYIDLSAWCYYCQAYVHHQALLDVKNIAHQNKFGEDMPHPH

MDA-MB-231 [4] = experiment: Cytotoxicity against human MDA-MB-231 cells assessed as reduction of cell viability at 200 uM after 72 hrs by MTT assay relative to control; assay type: functional
CCRF-CEM = experiment: Cytotoxicity against human CCRF-CEM cells; assay type: functional
K562 = experiment: Cytotoxicity against human K562 cells; assay type: functional
RPMI-8226 = experiment: Cytotoxicity against human RPMI8226 cells; assay type: functional
HOP-62 = experiment: Cytotoxicity against human HOP62 cells; assay type: functional
HOP-92 = experiment: Cytotoxicity against human HOP92 cells; assay type: functional
NCI-H226 = experiment: Cytotoxicity against human NCI-H226 cells; assay type: functional
NCI-H23 = experiment: Cytotoxicity against human NCI-H23 cells; assay type: functional
NCI-H322M = experiment: Cytotoxicity against human NCI-H322M cells; assay type: functional
NCI-H522 = experiment: Cytotoxicity against human NCI-H522 cells; assay type: functional
COLO 205 = experiment: Cytotoxicity against human COLO205 cells; assay type: functional
HCC 2998 = experiment: Cytotoxicity against human HCC2998 cells; assay type: functional
HCT-15 = experiment: Cytotoxicity against human HCT15 cells; assay type: functional
SF-295 = experiment: Cytotoxicity against human SF295 cells; assay type: functional
SF-539 = experiment: Cytotoxicity against human SF539 cells; assay type: functional
SNB-75 = experiment: Cytotoxicity against human SNB75 cells; assay type: functional
U-251 = experiment: Cytotoxicity against human U251 cells; assay type: functional
Malme-3M = experiment: Cytotoxicity against human MALME-3M cells; assay type: functional
MDA-MB-435 = experiment: Cytotoxicity against human MDA-MB-435 cells; assay type: functional
SK-MEL-2 = experiment: Cytotoxicity against human SK-MEL-2 cells; assay type: functional
SK-MEL-28 = experiment: Cytotoxicity against human SK-MEL-28 cells; assay type: functional
SK-MEL-5 = experiment: Cytotoxicity against human SK-MEL-5 cells; assay type: functional
UACC-257 = experiment: Cytotoxicity against human UACC257 cells; assay type: functional
UACC-62 = experiment: Cytotoxicity against human UACC62 cells; assay type: functional
IGROV-1 = experiment: Cytotoxicity against human IGROV1 cells; assay type: functional
OVCAR-3 = experiment: Cytotoxicity against human OVCAR3 cells; assay type: functional
OVCAR-4 = experiment: Cytotoxicity against human OVCAR4 cells; assay type: functional
OVCAR-5 = experiment: Cytotoxicity against human OVCAR5 cells; assay type: functional
[5] = Cytotoxicity against human NCI-ADR-RES cells; assay type: functional
786-0 = experiment: Cytotoxicity against human 786-0 cells; assay type: functional
A498 = experiment: Cytotoxicity against human A498 cells; assay type: functional
ACHN = experiment: Cytotoxicity against human ACHN cells; assay type: functional
CAKI-1 = experiment: Cytotoxicity against human Caki1 cells; assay type: functional
SN12C = experiment: Cytotoxicity against human SN12C cells; assay type: functional
TK-10 = experiment: Cytotoxicity against human TK10 cells; assay type: functional
PC-3 = experiment: Cytotoxicity against human PC3 cells; assay type: functional
DU-145 = experiment: Cytotoxicity against human DU145 cells; assay type: functional
MDA-MB-231 [6] = experiment: Cytotoxicity against human MDA-MB-231 cells; assay type: functional
BT-549 = experiment: Cytotoxicity against human BT549 cells; assay type: functional
MDA-MB-468 = experiment: Cytotoxicity against human MDA-MB-468 cells; assay type: functional
Xenopus laevis = organism: Xenopus laevis; conditions: at 10 to 100 µM

Mast/stem cell growth factor receptor Kit (Homo sapiens), sequence (P10721 whole entry): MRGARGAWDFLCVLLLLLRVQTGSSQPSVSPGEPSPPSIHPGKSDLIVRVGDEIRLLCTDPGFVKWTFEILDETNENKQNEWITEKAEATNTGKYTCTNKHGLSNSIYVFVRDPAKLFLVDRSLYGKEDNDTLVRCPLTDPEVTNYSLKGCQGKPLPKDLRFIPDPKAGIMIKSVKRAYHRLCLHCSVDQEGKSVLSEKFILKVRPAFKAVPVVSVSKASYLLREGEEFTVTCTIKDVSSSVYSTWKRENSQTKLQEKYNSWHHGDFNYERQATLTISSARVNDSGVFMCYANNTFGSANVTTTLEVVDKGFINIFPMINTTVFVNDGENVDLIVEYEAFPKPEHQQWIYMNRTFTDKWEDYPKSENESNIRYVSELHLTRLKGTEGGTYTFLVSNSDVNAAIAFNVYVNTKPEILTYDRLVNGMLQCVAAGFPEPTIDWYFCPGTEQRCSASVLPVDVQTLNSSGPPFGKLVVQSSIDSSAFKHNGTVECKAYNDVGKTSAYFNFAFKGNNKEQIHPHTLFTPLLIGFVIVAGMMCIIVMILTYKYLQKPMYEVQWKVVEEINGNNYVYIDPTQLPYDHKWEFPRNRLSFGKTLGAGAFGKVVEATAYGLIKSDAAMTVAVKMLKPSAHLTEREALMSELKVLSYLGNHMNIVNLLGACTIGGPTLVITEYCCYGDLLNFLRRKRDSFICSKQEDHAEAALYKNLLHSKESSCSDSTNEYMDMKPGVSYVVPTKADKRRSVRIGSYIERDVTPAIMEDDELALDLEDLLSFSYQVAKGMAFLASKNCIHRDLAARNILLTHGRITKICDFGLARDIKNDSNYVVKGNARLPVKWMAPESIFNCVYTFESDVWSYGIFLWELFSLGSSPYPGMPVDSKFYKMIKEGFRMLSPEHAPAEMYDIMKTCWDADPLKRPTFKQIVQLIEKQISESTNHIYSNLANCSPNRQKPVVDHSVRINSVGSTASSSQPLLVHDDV

Compound: O=C(CCCCCCC(=O)Nc1ccc2c(c1)/C(=C/c1ccc[nH]1)C(=O)N2)NO
- inhibition [1]: inactive
- IC50 [2]: 1190 nM
- IC50 (Histone deacetylase 2): 1.11 nM
- IC50 (Histone deacetylase 3): 0.669 nM
- IC50 (Histone deacetylase 4): Not Active
- IC50 (Histone deacetylase 5): 850 nM
- IC50 [3]: 0.323 nM
- Activity (MDA-MB-231 [4]): 30%
- GI50 (CCRF-CEM): 102 nM
- GI50 (K562): 251 nM
- GI50 (RPMI-8226): 2920 nM
- GI50 (HOP-62): 381 nM
- GI50 (HOP-92): 412 nM
- GI50 (NCI-H226): 2320 nM
- GI50 (NCI-H23): 1320 nM
- GI50 (NCI-H322M): 1020 nM
- GI50 (NCI-H522): 87 nM
- GI50 (COLO 205): 248 nM
- GI50 (HCC 2998): 1640 nM
- GI50 (HCT-15): 4590 nM
- GI50 (SF-295): 1310 nM
- GI50 (SF-539): 605 nM
- GI50 (SNB-75): 194 nM
- GI50 (U-251): 420 nM
- GI50 (Malme-3M): 86 nM
- GI50 (MDA-MB-435): 341 nM
- GI50 (SK-MEL-2): 989 nM
- GI50 (SK-MEL-28): 406 nM
- GI50 (SK-MEL-5): 243 nM
- GI50 (UACC-257): 370 nM
- GI50 (UACC-62): 301 nM
- GI50 (IGROV-1): 167 nM
- GI50 (OVCAR-3): 3600 nM
- GI50 (OVCAR-4): 1270 nM
- GI50 (OVCAR-5): 1120 nM
- GI50 [5]: 4000 nM
- GI50 (786-0): 2400 nM
- GI50 (A498): 365 nM
- GI50 (ACHN): 1150 nM
- GI50 (CAKI-1): 2330 nM
- GI50 (SN12C): 2190 nM
- GI50 (TK-10): 795 nM
- GI50 (PC-3): 917 nM
- GI50 (DU-145): 1020 nM
- GI50 (MDA-MB-231 [6]): 1000 nM
- GI50 (BT-549): 1940 nM
- GI50 (MDA-MB-468): 194 nM
- inhibition (Xenopus laevis): Active
